Among the test systems are BT-549 breast; KM12 colon; NCI/ADR-RES ovarian; OVCAR-4 ovarian; SF-268 CNS; SK-MEL-28 melanoma; SN12C renal; UO-31 renal; NCI-H23 lung; HOP-92 NSCLC.
Holding throughout (assay): inhibition of tumour cell growth, NCI panel, 48 h

Structures are written as SMILES.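 96-well plates; 48 h exposure; 5 concentrations. Endpoints by linear interpolation between flanking doses. Not reached: highest tested concentration assigned. TGI: total growth inhibition.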

With `CCOC(=O)CN=C1Nc2ccccc2C(=O)N2CSCC12` (stereo not drawn), the TGI with BT-549 breast, in the experiment with KM12 colon, in the experiment on NCI/ADR-RES ovarian, in the experiment on OVCAR-4 ovarian, with SF-268 CNS and with SK-MEL-28 melanoma was more than 100 µM each time. The TGI in the experiment on SN12C renal and in the experiment with UO-31 renal was more than 100 µM in each case.
`CC1=NC2(CCCCC2)N(Cl)C(=O)C1SC#N` (stereo not drawn): the TGI in the experiment on BT-549 breast amounted to 28.5 µM; in the experiment on KM12 colon it was 42.6 µM; in the experiment on NCI-H23 lung, 58.9 µM; in the experiment on NCI/ADR-RES ovarian, 56.2 µM; in the experiment with OVCAR-4 ovarian, 46.2 µM; in the experiment with SF-268 CNS it was 33.5 µM. Also, the TGI with SK-MEL-28 melanoma is 34.9 µM; in the experiment on SN12C renal it was 36.5 µM; in the experiment on UO-31 renal, 32.9 µM.
As to `CCOC(=O)c1[nH]cnc1/N=N/N(C)N`, the TGI with BT-549 breast is more than 100 µM; in the experiment on KM12 colon, 14 µM; in the experiment with NCI-H23 lung, more than 100 µM; with NCI/ADR-RES ovarian it was more than 100 µM; in the experiment with OVCAR-4 ovarian, more than 100 µM; with SF-268 CNS, more than 100 µM. Moreover, the TGI with SK-MEL-28 melanoma, in the experiment with SN12C renal and in the experiment on UO-31 renal was more than 100 µM in each case.
For the molecule `Cc1c(NC(=S)N/N=C\C(=N/NC(=S)Nc2c(C)n(C)n(-c3ccccc3)c2=O)c2ccccc2)c(=O)n(-c2ccccc2)n1C`, the TGI in the experiment with BT-549 breast, in the experiment with HOP-92 NSCLC, with KM12 colon, in the experiment with NCI-H23 lung, with NCI/ADR-RES ovarian and in the experiment with OVCAR-4 ovarian was more than 100 µM throughout. The TGI in the experiment on SF-268 CNS and in the experiment on UO-31 renal was more than 100 µM in each case.
For `Nc1nc2cc(CNc3ccc(C(=O)O)cc3)ccc2nc1-c1ccccc1`, the TGI in the experiment with BT-549 breast, in the experiment with NCI-H23 lung, with NCI/ADR-RES ovarian, with OVCAR-4 ovarian, with SF-268 CNS and in the experiment with SK-MEL-28 melanoma was more than 100 µM in each case. Moreover, the TGI in the experiment on SN12C renal and in the experiment on UO-31 renal was more than 100 µM throughout.
Regarding `O=C1C=C(N2CCCC2)C(=O)c2c(O)ccc(O)c21`, the TGI in the experiment on BT-549 breast was more than 10 µM; in the experiment with HOP-92 NSCLC, more than 10 µM; in the experiment on KM12 colon, more than 10 µM; with NCI-H23 lung it was more than 1 µM; in the experiment with SF-268 CNS, more than 10 µM; in the experiment on SK-MEL-28 melanoma it was more than 10 µM. In addition, the TGI in the experiment on SN12C renal and in the experiment with UO-31 renal was more than 10 µM each time.
Turning to `c1nncn1C12C3C4C5C3C1C5C42` (stereo not drawn), the TGI with BT-549 breast, with KM12 colon, with NCI-H23 lung, in the experiment with NCI/ADR-RES ovarian, in the experiment with SF-268 CNS and in the experiment on SK-MEL-28 melanoma was more than 100 µM each time. This molecule registered a TGI with SN12C renal of more than 100 µM.
For `CCn1nc(-c2ccccc2)c2c1N(C)c1ccccc1-n1c(-c3ccccc3)nnc1-2`, the TGI in the experiment with HOP-92 NSCLC stood at 35.9 µM; in the experiment with NCI-H23 lung, 28.2 µM; in the experiment on NCI/ADR-RES ovarian, 40.3 µM; with SF-268 CNS it was 32.5 µM; in the experiment with SK-MEL-28 melanoma it was 33.1 µM; in the experiment with SN12C renal, 32.7 µM. Besides, in the experiment with UO-31 renal, the TGI came to 40.5 µM.
For the molecule `CCN(CC)c1ccc(/C=c2\nc(-c3ccccc3)n3c2nc2ccccc23)cc1`, the TGI in the experiment on BT-549 breast was 72.2 µM; in the experiment with HOP-92 NSCLC, more than 100 µM; in the experiment with KM12 colon it was more than 100 µM; in the experiment on NCI-H23 lung it was more than 100 µM; in the experiment with NCI/ADR-RES ovarian, 26.6 µM; in the experiment on OVCAR-4 ovarian, 32.2 µM. The TGI in the experiment on SF-268 CNS, in the experiment with SN12C renal and in the experiment on UO-31 renal was more than 100 µM each time.
With `OCc1c2c(cc3c1CC1(C3)Cc3cc4c(c(CO)c3C1)CCC4)CCC2`, the TGI with HOP-92 NSCLC came out at 33.1 µM; with KM12 colon it was 31.2 µM; with NCI-H23 lung, 29.8 µM; in the experiment on NCI/ADR-RES ovarian, 37.8 µM; with OVCAR-4 ovarian it was 23.5 µM; with SN12C renal, 32.4 µM. The molecule also returned a TGI in the experiment with UO-31 renal of 3.22 µM.
In the case of `C=C(C)[C@@H]1CC[C@]2(CO)CC[C@]3(C)[C@H](CC[C@@H]4[C@@]5(C)CC[C@H](O)C(C)(C)[C@@H]5CC[C@]43C)[C@@H]12`, the TGI in the experiment on BT-549 breast is 39.8 µM; in the experiment on HOP-92 NSCLC it was 41 µM; with KM12 colon it was more than 100 µM; with NCI-H23 lung it was more than 100 µM; in the experiment with NCI/ADR-RES ovarian, more than 100 µM; in the experiment with SF-268 CNS it was more than 100 µM. Moreover, the results for the TGI in the experiment on SK-MEL-28 melanoma, in the experiment with SN12C renal and in the experiment with UO-31 renal were more than 100 µM, 69.6 µM and 26 µM, respectively.
Regarding `COc1cc2c(cc1OC)C1=Cc3ccc(OC)c(OC)c3C(C#N)N1CC2` (stereo not drawn), the TGI with BT-549 breast was 63.2 µM; with KM12 colon, 58.7 µM; with NCI-H23 lung, more than 100 µM; in the experiment with NCI/ADR-RES ovarian it was more than 100 µM; with OVCAR-4 ovarian, more than 100 µM; in the experiment on SF-268 CNS, more than 100 µM. Moreover, the TGI with SK-MEL-28 melanoma, with SN12C renal and in the experiment with UO-31 renal was more than 100 µM in each case.
On to `Cc1ccc(C2(N3CCCC3)OC(C)(C)c3cccc4cccc2c34)cc1` (stereo not drawn), for which the TGI was 31.3 µM in the experiment on BT-549 breast; 21.2 µM in the experiment on HOP-92 NSCLC; more than 100 µM in the experiment with KM12 colon; 29.9 µM in the experiment with NCI-H23 lung; 30.1 µM in the experiment with NCI/ADR-RES ovarian; 27.6 µM with OVCAR-4 ovarian. For the same molecule, the results for the TGI with SF-268 CNS, in the experiment with SN12C renal and with UO-31 renal were 25.8 µM, 32.6 µM and 28.3 µM, respectively.
Regarding `CC(C)=NNc1cnnc2ccc([N+](=O)[O-])cc12`, the TGI in the experiment on BT-549 breast, in the experiment with HOP-92 NSCLC, in the experiment with KM12 colon, with NCI-H23 lung, in the experiment on NCI/ADR-RES ovarian and in the experiment on SF-268 CNS was more than 100 µM each time. The TGI with SN12C renal and in the experiment on UO-31 renal was more than 100 µM each time.
In the case of `CC1(C)C2CCC1(C)C(N/C(=C(/C(Cl)=C(Cl)Cl)[N+](=O)[O-])n1nnc3ccccc31)C2` (stereo not drawn), the TGI is 48.5 µM in the experiment on BT-549 breast; 87.9 µM in the experiment with KM12 colon; 52.2 µM with NCI-H23 lung; 97.6 µM in the experiment on NCI/ADR-RES ovarian; 60.7 µM in the experiment on OVCAR-4 ovarian; 37.9 µM in the experiment with SF-268 CNS. Moreover, the values for the TGI in the experiment with SK-MEL-28 melanoma, in the experiment on SN12C renal and with UO-31 renal were more than 100 µM, more than 100 µM and 51 µM, respectively.
As to `C/C=C1\CN2CCC34c5ccccc5N(C)C35OCC4(C(=O)OC)C1CC25` (stereo not drawn), the TGI with BT-549 breast, in the experiment with HOP-92 NSCLC, in the experiment on KM12 colon, in the experiment with NCI-H23 lung, in the experiment on OVCAR-4 ovarian and with SF-268 CNS was more than 100 µM throughout. Besides, the TGI in the experiment with SK-MEL-28 melanoma, in the experiment with SN12C renal and with UO-31 renal was more than 100 µM each time.

Values taken from PubChem BioAssay (NCI).
